The target of data set [1] is T1, Solute carrier organic anion transporter family member 1B1 (Homo sapiens, UniProt Q9Y6L6).
T1 sequence (Q9Y6L6 whole entry): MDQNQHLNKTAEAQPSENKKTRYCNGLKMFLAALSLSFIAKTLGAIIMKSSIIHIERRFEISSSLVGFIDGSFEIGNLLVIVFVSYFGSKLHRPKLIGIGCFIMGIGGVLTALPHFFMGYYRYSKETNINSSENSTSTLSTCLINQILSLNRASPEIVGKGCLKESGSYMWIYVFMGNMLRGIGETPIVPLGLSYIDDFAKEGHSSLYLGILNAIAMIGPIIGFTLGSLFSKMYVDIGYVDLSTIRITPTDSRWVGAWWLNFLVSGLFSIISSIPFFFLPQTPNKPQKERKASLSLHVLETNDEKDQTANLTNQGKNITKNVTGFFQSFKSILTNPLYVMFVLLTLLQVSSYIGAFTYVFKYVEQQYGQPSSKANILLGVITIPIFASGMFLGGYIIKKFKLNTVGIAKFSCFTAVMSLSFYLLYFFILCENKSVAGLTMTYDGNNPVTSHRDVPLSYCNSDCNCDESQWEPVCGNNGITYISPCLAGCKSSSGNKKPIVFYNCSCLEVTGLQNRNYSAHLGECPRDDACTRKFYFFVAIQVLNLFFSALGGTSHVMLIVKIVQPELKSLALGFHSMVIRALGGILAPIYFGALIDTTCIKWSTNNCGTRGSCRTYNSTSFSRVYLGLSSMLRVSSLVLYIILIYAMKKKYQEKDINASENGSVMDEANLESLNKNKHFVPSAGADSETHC
As to conditions: chinese hamster, cho, 10 µM.

Data set [2] addresses T2, Solute carrier organic anion transporter family member 1B3 (Homo sapiens, UniProt Q9NPD5).
T2 sequence (Q9NPD5 whole entry): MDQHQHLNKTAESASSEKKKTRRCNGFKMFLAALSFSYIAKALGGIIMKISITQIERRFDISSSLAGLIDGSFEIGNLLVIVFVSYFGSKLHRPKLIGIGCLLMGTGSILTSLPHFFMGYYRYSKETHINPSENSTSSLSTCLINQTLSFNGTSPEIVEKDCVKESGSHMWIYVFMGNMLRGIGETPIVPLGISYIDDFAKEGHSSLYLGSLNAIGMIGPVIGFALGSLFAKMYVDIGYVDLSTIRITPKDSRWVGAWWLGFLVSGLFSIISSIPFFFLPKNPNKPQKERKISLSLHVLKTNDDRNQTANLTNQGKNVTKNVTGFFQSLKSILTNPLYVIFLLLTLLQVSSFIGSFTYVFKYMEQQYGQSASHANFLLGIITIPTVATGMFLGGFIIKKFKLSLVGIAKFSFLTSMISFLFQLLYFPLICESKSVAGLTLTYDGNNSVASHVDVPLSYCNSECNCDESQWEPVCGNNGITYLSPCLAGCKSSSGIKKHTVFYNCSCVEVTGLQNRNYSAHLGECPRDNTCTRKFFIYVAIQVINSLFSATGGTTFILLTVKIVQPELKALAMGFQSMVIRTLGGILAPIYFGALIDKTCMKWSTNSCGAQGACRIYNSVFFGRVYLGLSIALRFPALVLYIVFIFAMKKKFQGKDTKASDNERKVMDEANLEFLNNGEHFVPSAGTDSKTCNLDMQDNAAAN
As to conditions: chinese hamster, cho, 10 µM.

Counter-ions that a name gives are not always drawn. Residues, ends and D or L forms follow the SMILES beside them. *: point of attachment. Tfa = O=C(C(F)(F)F)*

On to `CCOC(=O)[C@H](CCc1ccccc1)N[C@@H](C)C(=O)N1[C@H](C(=O)O)C[C@H]2CCCC[C@@H]21` [TRANDOLAPRIL], for which the results for the residual activity in data set [1] and in data set [2] were 118% and 102.1%, respectively.
Turning to `NC[C@H]1CC[C@H](C(=O)O)CC1` [TRANEXAMIC ACID], the residual activity is given as 81.79% in data set [1] and 102.3% in data set [2].
As for `Cl.N[C@@H]1C[C@H]1c1ccccc1` [TRANYLCYPROMINE HYDROCHLORIDE], the residual activity is recorded as 80.64% in data set [1] and 89.57% in data set [2].
For `N[C@@H]1C[C@H]1c1ccccc1.N[C@H]1C[C@@H]1c1ccccc1.O=S(=O)(O)O` [TRANYLCYPROMINE SULFATE], in that order: 73.89% and 84.19%.
`Cl.O=c1n(CCCN2CCN(c3cccc(Cl)c3)CC2)nc2ccccn12` [TRAZODONE HYDROCHLORIDE]: the figures for the residual activity in data set [1] and in data set [2] were 98.06% and 111.6%, respectively.
Taken in the same sequence, the figures for `CC(=O)OCC(COC(C)=O)OC(C)=O` [TRIACETIN] were 98.2% and 86.74%.
For `CC(=O)Oc1ccc(/C=C/c2cc(OC(C)=O)cc(OC(C)=O)c2)cc1` [TRIACETYLRESVERATROL], in that order: 160.6% and 143.6%.
`CC(C)(C)C(=O)C(Oc1ccc(Cl)cc1)n1cncn1` (stereo not given) [TRIADIMEFON]: the residual activity in data set [1] is on record as 75.79%; in data set [2], 87.3%.
For `CC(C)N(C(=O)SCC(Cl)=C(Cl)Cl)C(C)C` [TRIALLATE], in that order: 119.9% and 109.6%.
Taken in the same sequence, the figures for `CC1(C)O[C@@H]2C[C@H]3[C@@H]4CCC5=CC(=O)C=C[C@]5(C)[C@@]4(F)[C@@H](O)C[C@]3(C)[C@]2(C(=O)CO)O1` [TRIAMCINOLONE ACETONIDE] were 128.1% and 115.5%.
Taken in the same sequence, the figures for `CC(=O)OCC(=O)[C@@]1(O)[C@H](OC(C)=O)C[C@H]2[C@@H]3CCC4=CC(=O)C=C[C@]4(C)[C@@]3(F)[C@@H](O)C[C@@]21C` [TRIAMCINOLONE DIACETATE] were 98.08% and 104.9%.
Take `C[C@]12C=CC(=O)C=C1CC[C@H]1[C@@H]3C[C@@H](O)[C@](O)(C(=O)CO)[C@@]3(C)C[C@H](O)[C@@]12F` [TRIAMCINOLONE]: the residual activity in data set [1] is recorded as 70.81%; in data set [2], 81.81%.
Turning to `O=c1cc(-c2cc(O)c(O)c(O)c2)oc2cc(O)cc(O)c12` [TRICETIN], the residual activity in data set [1] is given as 79.5%; in data set [2] it was 127.6%.
For `NS(=O)(=O)c1cc2c(cc1Cl)NC(C(Cl)Cl)NS2(=O)=O` (stereo not given) [TRICHLORMETHIAZIDE], in that order: 81.82% and 86.79%.
Taken in the same sequence, the figures for `CCCN(CCC)c1c([N+](=O)[O-])cc(C(F)(F)F)cc1[N+](=O)[O-]` [TRIFLURALIN] were 93.6% and 102.7%.
On to `O=c1[nH]c(=O)n([C@H]2C[C@H](O)[C@@H](CO)O2)cc1C(F)(F)F` [TRIFLURIDINE], for which the residual activity in data set [1] is 64.99%; in data set [2], 84.35%.
Taken in the same sequence, the figures for `C[n+]1cccc(C(=O)[O-])c1` [TRIGONELLINE] were 111.6% and 98.34%.
Taken in the same sequence, the figures for `COc1cc(C(=O)NCc2ccc(OCCN(C)C)cc2)cc(OC)c1OC.Cl` [TRIMETHOBENZAMIDE HYDROCHLORIDE] were 111% and 140.2%.
For `COc1cc(Cc2cnc(N)nc2N)cc(OC)c1OC` [TRIMETHOPRIM], the residual activity in data set [1] came to 82.92%; in data set [2], 97.26%.
For `CC(CN(C)C)CN1c2ccccc2CCc2ccccc21.O=C(O)/C=C\C(=O)O` (stereo not given) [TRIMIPRAMINE MALEATE], in that order: 93.52% and 103.3%.
Take `Cc1cc2cc3c(C)cc(=O)oc3c(C)c2o1` [TRIOXSALEN]: the values for the residual activity in data set [1] and in data set [2] were 103.1% and 86.89%, respectively.
For `CN(C)CCN(Cc1ccccc1)c1ccccn1.O=C(O)CC(O)(CC(=O)O)C(=O)O` [TRIPELENNAMINE CITRATE], in that order: 81.25% and 93.75%.
Taken in the same sequence, the figures for `CC(C)[C@]12O[C@H]1[C@@H]1O[C@@]13[C@@]1(C)CCC4=C(COC4=O)[C@@H]1C[C@@H]1O[C@@]13C2=O` [TRIPTONIDE] were 74.69% and 84.23%.
Taken in the same sequence, the figures for `CC(C)c1ccc2c(c1O)CC[C@H]1C3=C(CC[C@]21C)C(=O)OC3` [TRIPTOPHENOLIDE] were 120.3% and 110.8%.
With `CCN(Cc1ccncc1)C(=O)C(CO)c1ccccc1` (stereo not given) [TROPICAMIDE], the residual activity in data set [1] came to 75.11%; in data set [2] it was 81.94%.
For `C[C@@H]1O[C@@H](OC[C@H]2O[C@@H](Oc3c(-c4ccc(OCCO)c(OCCO)c4)oc4cc(OCCO)cc(O)c4c3=O)[C@H](O)[C@@H](O)[C@@H]2O)[C@H](O)[C@H](O)[C@H]1O` [TROXERUTIN], in that order: 61.9% and 49.51%.
Taken in the same sequence, the figures for `NCCc1c[nH]c2ccccc12` [TRYPTAMINE] were 101% and 104.1%.
As to `c1ccc2c3c([nH]c2c1)CNCC3` [TRYPTOLINE], the results for the residual activity in data set [1] and in data set [2] were 99.4% and 98.72%, respectively.
For the compound `N[C@@H](Cc1c[nH]c2ccccc12)C(=O)O` [TRYPTOPHAN], the results for the residual activity in data set [1] and in data set [2] were 93.19% and 97.09%, respectively.
Taken in the same sequence, the figures for `C=C(C)C1Cc2c(ccc(C(=O)O)c2O)O1` (stereo not given) [TUBAIC ACID] were 158.2% and 80.8%.
Taken in the same sequence, the figures for `NCCc1ccc(O)cc1` [TYRAMINE] were 59.9% and 85.38%.
On to `CC(C)[C@H](NC(=O)[C@H](Cc1ccc(O)cc1)NC(=O)[C@@H](NC(=O)C(F)(F)F)C(C)C)C(=O)O` [Tfa-VAL-TYR-VAL-OH] (Tfa-Val-Tyr-Val-OH), for which the figures for the residual activity in data set [1] and in data set [2] were 108% and 96.81%, respectively.
Taken in the same sequence, the figures for `COC1=C(OC)C(=O)C(C/C=C(\C)CC/C=C(\C)CC/C=C(\C)CC/C=C(\C)CC/C=C(\C)CC/C=C(\C)CC/C=C(\C)CC/C=C(\C)CC/C=C(\C)CCC=C(C)C)=C(C)C1=O` [UBIDECARENONE] were 118.6% and 137.7%.
For `O=c1ccc2ccc(O)cc2o1` [UMBELLIFERONE], in that order: 26.71% and 76.49%.
For `NC(N)=O` [UREA], in that order: 87.46% and 105.9%.
For the compound `COc1ccc(C(=O)CC(=O)O)c2c1C=CC(C)(C)O2` [URSINOIC ACID], the residual activity in data set [1] amounted to 116%; in data set [2] it was 105.2%.
Taken in the same sequence, the figures for `C[C@H](CCC(=O)O)[C@H]1CC[C@H]2[C@@H]3CC[C@@H]4CCCC[C@]4(C)[C@H]3CC[C@]12C` [URSOCHOLANIC ACID] were 98.45% and 102.7%.
On to `C[C@H](CCC(=O)O)[C@H]1CC[C@H]2[C@@H]3[C@@H](O)C[C@@H]4C[C@H](O)CC[C@]4(C)[C@H]3CC[C@]12C` [URSODIOL], for which the residual activity in data set [1] is recorded as 70.93%; in data set [2], 149.7%.
As for `C[C@H]1[C@H](C)CC[C@]2(CO)CC[C@]3(C)C(=CC[C@@H]4[C@@]5(C)CC[C@H](O)C(C)(C)[C@@H]5CC[C@]43C)[C@H]12` [UVAOL], the values for the residual activity in data set [1] and in data set [2] were 121.5% and 107.5%, respectively.
Taken in the same sequence, the figures for `CC(C)[C@H](N)C(=O)OCCOCn1cnc2c(=O)[nH]c(N)nc21.Cl` [VALACYCLOVIR HYDROCHLORIDE] were 68.57% and 80.91%.

The record behind these values is ChEMBL document CHEMBL3039007, “Structure-based identification of OATP1B1/3 inhibitors” (Mol Pharmacol, 2013).
